According to ChEMBL document CHEMBL1141478, “Lysianadioic acid, a carboxypeptidase B inhibitor from Lysiana subfalcata” (Bioorg Med Chem Lett, 2008):

Target: T1, Carboxypeptidase B (Homo sapiens, UniProt P15086)
T1 sequence (P15086 whole entry): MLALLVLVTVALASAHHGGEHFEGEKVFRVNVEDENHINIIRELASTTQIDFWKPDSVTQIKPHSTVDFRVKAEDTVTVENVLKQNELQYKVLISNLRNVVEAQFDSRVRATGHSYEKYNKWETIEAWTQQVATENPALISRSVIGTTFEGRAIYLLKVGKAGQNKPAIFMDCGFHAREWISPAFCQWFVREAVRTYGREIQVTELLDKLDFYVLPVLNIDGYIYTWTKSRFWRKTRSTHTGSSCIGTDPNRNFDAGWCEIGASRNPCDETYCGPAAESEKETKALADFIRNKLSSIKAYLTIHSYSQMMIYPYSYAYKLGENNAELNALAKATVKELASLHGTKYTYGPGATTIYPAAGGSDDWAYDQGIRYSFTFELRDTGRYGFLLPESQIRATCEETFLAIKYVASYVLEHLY
Experiment: Inhibition of carboxypeptidase B

IC50: 0.36 µM
Structure (SMILES): N=C(N)NCC/C=C(/CC(=O)O)C(=O)O [LYSIANADIOIC ACID]
